One assay addresses T1, Adenosine receptor A1 (Rattus norvegicus, UniProt P25099).
T1 sequence (P25099 whole entry): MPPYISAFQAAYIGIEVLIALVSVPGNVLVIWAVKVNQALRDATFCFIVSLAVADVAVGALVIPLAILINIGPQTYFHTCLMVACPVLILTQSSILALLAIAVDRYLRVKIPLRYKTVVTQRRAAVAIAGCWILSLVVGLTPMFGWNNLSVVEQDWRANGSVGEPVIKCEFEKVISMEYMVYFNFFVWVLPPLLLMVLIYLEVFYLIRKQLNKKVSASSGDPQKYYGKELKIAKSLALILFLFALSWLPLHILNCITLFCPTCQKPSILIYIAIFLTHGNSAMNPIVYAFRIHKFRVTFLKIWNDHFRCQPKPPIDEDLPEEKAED
As to the kind of experiment: Binding affinity for Adenosine A1 receptor of rat cortical membrane by displacing [3H]DPCPX.

A further assay concerns the target Adenosine receptor A2a (Rattus norvegicus, UniProt P30543). The assay can be described thus: Binding affinity for adenosine A2A receptor of rat striatal membrane by displacing [3H]-ZM 241385. Also on record: species or system Striatum.
The target in a further assay is T2, Adenosine receptor A3 (Homo sapiens, UniProt P0DMS8).
T2 sequence (P0DMS8 whole entry): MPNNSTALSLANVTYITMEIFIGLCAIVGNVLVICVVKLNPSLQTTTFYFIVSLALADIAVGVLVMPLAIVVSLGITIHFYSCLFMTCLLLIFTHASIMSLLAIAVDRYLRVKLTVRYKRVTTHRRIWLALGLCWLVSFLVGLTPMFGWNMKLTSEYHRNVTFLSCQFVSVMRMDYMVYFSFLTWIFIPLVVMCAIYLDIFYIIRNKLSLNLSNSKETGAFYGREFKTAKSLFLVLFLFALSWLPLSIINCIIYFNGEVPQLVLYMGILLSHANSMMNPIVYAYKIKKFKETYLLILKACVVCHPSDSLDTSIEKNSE
As to the kind of experiment: Binding affinity for Adenosine A3 receptor expressed in HEK 293 cells by displacing i[125I]-ABMECA. It is filed as cell-based, HEK293.

Assay [1] addresses Adenosine receptor A2a (Rattus norvegicus) (UniProt P30543). As to the kind of experiment: Binding affinity for adenosine A2A receptor of rat striatal membrane by displacing [3H]ZM-241385.

Chain of Adenosine receptor A2a (Rattus norvegicus) (P30543 whole entry): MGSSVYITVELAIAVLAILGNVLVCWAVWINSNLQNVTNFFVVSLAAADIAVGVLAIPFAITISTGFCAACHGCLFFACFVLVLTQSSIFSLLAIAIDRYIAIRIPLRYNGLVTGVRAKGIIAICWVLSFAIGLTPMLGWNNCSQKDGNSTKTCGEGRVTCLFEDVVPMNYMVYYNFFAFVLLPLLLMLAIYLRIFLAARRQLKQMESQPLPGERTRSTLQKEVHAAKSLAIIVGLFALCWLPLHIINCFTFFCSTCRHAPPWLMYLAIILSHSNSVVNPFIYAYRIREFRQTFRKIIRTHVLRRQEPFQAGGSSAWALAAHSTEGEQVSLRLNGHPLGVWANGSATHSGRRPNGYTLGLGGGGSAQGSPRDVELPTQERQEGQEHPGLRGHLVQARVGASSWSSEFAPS
Chain of Adenosine receptor A2a (P30543 whole entry): as above

What is called Ki is a measure of affinity in units of concentration, obtained from inhibition or displacement. For the compound `O=[N+]([O-])c1nc(NCc2cccc(I)c2)c2ncn([C@@H]3O[C@H](CO)[C@@H](O)[C@H]3O)c2n1`, the Ki on Adenosine receptor A1 was determined as 138 nM; on Adenosine receptor A2a it was 1440 nM; at Adenosine receptor A3, 12 nM.

`O=[N+]([O-])c1nc(NCc2ccccc2)c2ncn([C@@H]3O[C@H](CO)[C@@H](O)[C@H]3O)c2n1`: the Displacement in assay [1] was found to be 20%. On Adenosine receptor A3, this compound came in with a Ki of 163 nM.

On to `O=[N+]([O-])c1nc(NC2CCCC2)c2ncn([C@@H]3O[C@H](CO)[C@@H](O)[C@H]3O)c2n1`, for which the values for the Ki on Adenosine receptor A1, on Adenosine receptor A2a and at Adenosine receptor A3 were 47.1 nM, 3510 nM and 222 nM, respectively.

For `O=[N+]([O-])c1cc(NC2CCCC2)c2ncn([C@@H]3O[C@H](CO)[C@@H](O)[C@H]3O)c2n1`, the Ki was determined as 52.6 nM at Adenosine receptor A1 and 340 nM on Adenosine receptor A3. The Displacement in assay [1] worked out at 52%.

In the case of `CONc1nc([N+](=O)[O-])nc2c1ncn2[C@@H]1O[C@H](CO)[C@@H](O)[C@H]1O`, the figures for the Ki at Adenosine receptor A1 and at Adenosine receptor A3 were 1160 nM and 35.8 nM, respectively. Also, in assay [1], the Displacement amounted to 9%.

As for `Nc1cc([N+](=O)[O-])nc2c1ncn2[C@@H]1O[C@H](CO)[C@@H](O)[C@H]1O`, the Ki at Adenosine receptor A1 is 646 nM; on Adenosine receptor A2a it was 437 nM; on Adenosine receptor A3, 216 nM.

With `Nc1nc([N+](=O)[O-])nc2c1ncn2[C@@H]1O[C@H](CO)[C@@H](O)[C@H]1O`, the values for the Ki at Adenosine receptor A1, at Adenosine receptor A2a and on Adenosine receptor A3 were 344 nM, 286 nM and 202 nM, respectively.

For the compound `O=[N+]([O-])c1cc(NCc2cccc(I)c2)c2ncn([C@@H]3O[C@H](CO)[C@@H](O)[C@H]3O)c2n1`, the inhibition constant (Ki) at Adenosine receptor A1 stood at 110 nM; at Adenosine receptor A2a, 208 nM; on Adenosine receptor A3 it was 9.8 nM.

The values above are taken from ChEMBL document CHEMBL1132734, “2-Nitro analogues of adenosine and 1-deazaadenosine: synthesis and binding studies at the adenosine A1, A2A and A3 receptor subtypes” (Bioorg Med Chem Lett, 2000).
